From patent US10500169B2, “Supression of IgE production by compounds derived from traditional chinese medicine” (Sean N. Parker Foundation, priority 2014, dated 2019)
In brackets after ≈: the same amount, converted by molar mass.

Tests used:
[1] = system: human PBMCs; assay: IgE production by PBMCs from food allergic patients stimulated with rIL-4 and anti-CD40 mAb, ELISA; type: cell-based; conditions: Homo sapiens, PBMC, 240 h; 20 μg/mL, 10 days, rIL-4 100 ng/mL + anti-CD40 mAb 1 μg/mL
Experimental: PBMCs were isolated by Ficoll Hypaque (Pharmacia, Piscataway, N.J.) using density gradient centrifugation at 1800 RPM for 30 minutes, and washed 3 times in PBS. To determine the optimal stimulation of IgE production by PBMCs, PBMCs at 1.5×10^6 cells/mL were suspended in complete RPMI medium (200 μM L-glutamine, 1% penicillin/streptomycin, 25 mM HEPES, 10% heat inactivated fetal calf serum), and co-stimulated with human recombinant IL-4 (rIL-4) at 0.01 and 0.1 μg/mL (R&D Systems, Minneapolis, Minn., USA) and anti-CD40 monoclonal antibody (mAb) at […] (R&D) for 10 and 14 days. At the end of incubation, the supernatants were collected and IgE levels were analyzed using ELISA kit (Mabtech Inc, OH). Since PBMCs stimulated with 100 ng/mL rIL-4 and 1 μg/mL anti-CD40 mAb produced the highest level of IgE, we used this culture condition for the subsequent studies. PBMCs were stimulated with 100 ng/mL rIL-4 and 1 μg/mL anti-CD40 mAb and cultured in the presence or absence of 20 μg/mL of the two purified compounds for 10 days for screening active compounds, and at different concentrations (0.15, 0.31, 0.62, 1.25, 2.5, 5, 10 μg/mL) to examine dose responses for the effective compounds. IgE level was evaluated using ELISA. The percentage of IgE inhibition was calculated as follows: […]. In some cases if enough PBMCs were obtained, aliquots of PBMCs prepared from the same individuals were used for different experiments.

[2] = system: U266 cells; assay: IgE production by U266 myeloma cells, ELISA of supernatants; type: cell-based, human; conditions: for effect on IgE production by U266 cells (in words): different concentrations; for IC50: 6 days culture, read-out: IC50 of inhibition of IgE production by U266 cells
Experimental: The IgE producing human U266 myeloma cell line (American Type Culture Collection; Rockville, Md.) has been used for screening pharmaceutical agents for IgE inhibitory effects, and thus this cell line was used to test the potential IgE inhibitory effects of herb extracts and purified compounds. Cells were cultured at 37° C. under 5% CO2 in complete media containing RPMI 1640 medium supplemented, 10% FBS, 1 mM sodium pyruvate, 1×10^-5 M β-ME and 0.5% penicillin-streptomycin. Cells were grown at an initial concentration of 2×10^5 cells/mL. FAHF-2 and B-FAHF-2, individual herb extracts and isolated compounds at different concentrations were added at day 0. Supernatants were harvested after 6 days culture, and IgE levels were determined by using an ELISA Kit (Mabtech Inc, OH). In each experiment, we run duplicate ELISA. In vitro experiments were repeated at least 3 times.
Human U266 myeloma cells (American Type Culture Collection; Rockville, Md.) were cultured in complete medium (RPMI 1640 medium supplemented, 10% FBS, 1 mM sodium pyruvate, 1×10^−5 M β-ME and 0.5% penicillin-streptomycin) at 37° C. under 5% CO2. Cells were grown at an initial concentration of 2×10^5 cells/mL with purpurin and alizarin from Rubia cordifolia L. at different concentrations (0.31, 0.62, 1.25, 2.5, 5 μg/mL), and with arctiin and arctigenin from Arctium lappa L. at different concentrations ([…]) for 6 days. The supernatants were harvested on day 6 for total IgE analysis using ELISA.

[3] = system: U266 cells; assay: Cell viability of U266 cells, trypan blue exclusion; type: cell-based, human; conditions: at the concentrations tested
Experimental: Cell viability was evaluated using a trypan blue exclusion as previously described. Briefly, a 10 μl of cells suspension from each culture was mixed with equal volume of trypan blue dye. The mixture was loaded into a hemocytometer and cells were counted under a microscope. The percentage of viable cells was calculated as follows: Viable cells (%)=(total number of viable cells)/(total number of cells)×100.

[4] = system: peanut allergic C3H/HeJ mice; assay: Peanut allergic mouse model, 400 μg of compound intragastrically daily for 4 weeks; type: in vivo; conditions: for body temperature following PN challenge: 30 minutes after oral challenge; for histamine level in plasma: week 15 post therapy challenge
Experimental: Freshly ground, whole roasted peanuts were homogenized in sterile PBS (Mediatech, VA) until a smooth suspension was obtained. Female C3H/HeJ mice were sensitized intragastrically (i.g.) with ground PN (10 mg/mouse) and cholera toxin (20 μg), on three consecutive days at week 0, and once a week for 5 weeks, and boosted at weeks 6 and 8 with 50 mg/mouse of PN and cholera toxin (20 μg) (FIG. 37A) as previous described^(40). Mice were intragastrically administered with 400 μg of three different active compounds (arctiin and arctigenin from Arctium lappa L., and 1,3-Dihydroxyanthraquinone from Rubia cordifolia L.) daily 24 h after the week 8 boosting and under this treatment for 4 weeks. Eight PN sensitized/boosted mice receiving 0.5 ml of 0.1% DMSO in water twice daily for the same period of treatment time as sham control mice for this experiment.
Anaphylactic symptoms were evaluated 30 min after challenge dose by two investigators using a scoring system described previously: […]; 1, scratching and rubbing around the snout and head; 2, puffiness around the eyes and mouth, pilar erection and reduced activity with an increased respiratory rate; 3, wheezing, labored respiration and cyanosis around the mouth; 4, no activity after prodding, or tremors, and convulsion; 5, death due to anaphylaxis.
To test the IgE inhibition effect of arctiin, arctigenin, and 1,3-dihydroxyanthraquinone in vivo, we treated peanut allergic mice with 400 μg of each active compound daily for four weeks, as shown in FIG. 37A.^(2)

[5] = system: peanut-allergic patients with high levels of IgE; conditions: cited from earlier work
[6] = system: peanut allergy subjects; conditions: cited from earlier work
[7] = system: peanut sensitized C3H/HeJ Mice; assay: Peanut allergic mouse model, 1,3-Dihydroxyanthraquinone 200 μg per mouse per day for seven weeks; type: in vivo
Experimental: FIG. 10 illustrates the in vivo experiment protocol. C3H/HeJ Mice were orally sensitized with 10 mg peanut and […] weekly for 5 weeks as described in methods. At weeks 6, 7 and 8, mice were boosted with 50 mg peanut mixed with cholera toxin. Seven weeks of 1,3-Dihydroxyanthraquinone (200 μg per mouse per day) treatment was started at W6. Mice were challenged with PN at week 13 and again at week 18. Mice were sacrificed 48 hours after last challenge.

CC1(C)O[C@H]2CC(=O)OC[C@]23[C@H]2CC[C@@]4(C)[C@H](c5ccoc5)OC(=O)[C@H]5O[C@]54[C@]2(C)C(=O)C[C@@H]13 [limonin]
inhibition at 20 µg/mL [1]: 33.9%
inhibition at 20 µg/mL ([2]; Homo sapiens, U-266, 144 h, 20 μg/mL, 6 days): 35.1%
effect on IgE production by U266 cells (in words) ([2]; 6 days): mild reduction of IgE production
cell viability of U266 cells [3]: no toxicity

O=C1c2ccccc2C(=O)c2c1ccc(O)c2O [alizarin]
IC50 ([2]; Homo sapiens, U-266, 144 h): 0.762 mg/L (≈ 3.17 µM)
effect on IgE production by U266 cells (in words) ([2]; 6 days): inhibited the IgE production in a dose-dependent manner

COc1cc(C[C@H]2C(=O)OC[C@@H]2Cc2ccc(OC)c(OC)c2)ccc1O [arctigenin]
protection against acute peanut induced anaphylaxis ([4]; 400 μg daily for four weeks): protected against the acute anaphylaxis
body temperature following PN challenge [4]: normal body temperatures
histamine level in plasma ([4]; vs sham): significantly decreased
effect on IgE production by U266 cells (in words) ([2]; 6 days): inhibited the IgE production by U266 in dose-dependent manner

omalizumab: anti-IgE antibody (Xolair, Genentech)
subjects tolerating 4000 mg of peanut flour ([5]; after 7-12 weeks): Twelve of thirteen
subjects tolerating a cumulative dose of 992 mg peanut flour ([5]; first day): All thirteen
patients requiring epinephrine ([5]; in vivo): 2 patients
peanut tolerability in oral food challenge ([6]; post-therapy (24-week), vs placebo): greater shift in peanut tolerability
serum peanut specific IgE ([6]; post-therapy): reduction of serum peanut specific IgE

O=C1c2ccccc2C(=O)c2c(O)c(O)cc(O)c21 [purpurin]
IC50 ([2]; Homo sapiens, U-266, 144 h): 0.353 mg/L (≈ 1.38 µM)
effect on IgE production by U266 cells (in words) ([2]; 6 days): inhibited the IgE production in a dose-dependent manner

COc1ccc(C[C@H]2COC(=O)[C@@H]2Cc2ccc(O[C@@H]3O[C@H](CO)[C@@H](O)[C@H](O)[C@H]3O)c(OC)c2)cc1OC [arctiin]
effect on IgE production by U266 cells (in words) ([2]; 6 days): inhibited the IgE production by U266 in dose-dependent manner

O=C1c2ccccc2C(=O)c2c(O)cc(O)cc21 [1,3-Dihydroxyanthraquinone]
protection against acute peanut induced anaphylaxis ([4]; 400 μg daily for four weeks): protected against the acute anaphylaxis
median anaphylactic symptom score ([4]; 400 μg daily for four weeks, vs sham): significant lower
body temperature following PN challenge [4]: normal body temperatures
histamine level in plasma ([4]; vs sham): significantly decreased
symptom scores following peanut challenge ([7]; vs sham): significantly weaker reactions
Peanut-Specific IgE levels ([7]; weeks 12 and 16): markedly reduced
effect on IgE production by U266 cells (in words) ([2]; 6 days): dose-dependent inhibition
